Measured values taken from ChEMBL document CHEMBL5303573, “Mapping human microbiome drug metabolism by gut bacteria and their genes” (Nature, 2019).

Key:
[1] = The drug is tested on Providencia rettgeri strain: DSM1131 for biotransformation. The drug concentrations were measured before and after a 12-h incubation by liquid-chromatography-coupled mass spectrometry (LC–MS); type: ADME; design: dose 2 uM, timepoint 0 vs 12 hours; conditions: 2 µM
[2] = The drug is tested on Anaerotruncus colihominis strain: DSM17241 for biotransformation. The drug concentrations were measured before and after a 12-h incubation by liquid-chromatography-coupled mass spectrometry (LC–MS); conditions: 2 µM
[3] = limosilactobacillus reuteri cf48-3a, 12 h, 2 µM
Description: The drug is tested on Lactobacillus reuteri CF48-3A strain: BEI HM-102 for biotransformation. The drug concentrations were measured before and after a 12-h incubation by liquid-chromatography-coupled mass spectrometry (LC–MS)

[4] = The drug is tested on Enterococcus faecalis strain: V583 for biotransformation. The drug concentrations were measured before and after a 12-h incubation by liquid-chromatography-coupled mass spectrometry (LC–MS); conditions: 2 µM
[5] = roseburia intestinalis, 12 h, 2 µM
Description: The drug is tested on Roseburia intestinalis strain: L1-82 for biotransformation. The drug concentrations were measured before and after a 12-h incubation by liquid-chromatography-coupled mass spectrometry (LC–MS)

[6] = bacteroides intestinalis, 12 h, 2 µM
Description: The drug is tested on Bacteroides intestinalis strain: DSM17393 for biotransformation. The drug concentrations were measured before and after a 12-h incubation by liquid-chromatography-coupled mass spectrometry (LC–MS)

[7] = The drug is tested on Bacteroides coprophilus strain: DSM18228 for biotransformation. The drug concentrations were measured before and after a 12-h incubation by liquid-chromatography-coupled mass spectrometry (LC–MS); conditions: 2 µM
[8] = The drug is tested on Clostridium sporogenes strain: ATCC15579 for biotransformation. The drug concentrations were measured before and after a 12-h incubation by liquid-chromatography-coupled mass spectrometry (LC–MS); conditions: 2 µM
[9] = The drug is tested on Bacteroides fragilis strain: HMW610 for biotransformation. The drug concentrations were measured before and after a 12-h incubation by liquid-chromatography-coupled mass spectrometry (LC–MS); conditions: 2 µM
[10] = The drug is tested on Clostridium scindens strain: ATCC35704 for biotransformation. The drug concentrations were measured before and after a 12-h incubation by liquid-chromatography-coupled mass spectrometry (LC–MS); conditions: 2 µM
[11] = The drug is tested on Blautia hansenii strain: DSM20583 for biotransformation. The drug concentrations were measured before and after a 12-h incubation by liquid-chromatography-coupled mass spectrometry (LC–MS); conditions: 2 µM
[12] = The drug is tested on Bacteroides uniformis strain: ATCC8492 for biotransformation. The drug concentrations were measured before and after a 12-h incubation by liquid-chromatography-coupled mass spectrometry (LC–MS); conditions: 2 µM
[13] = The drug is tested on Coprococcus comes strain: ATCC27758 for biotransformation. The drug concentrations were measured before and after a 12-h incubation by liquid-chromatography-coupled mass spectrometry (LC–MS); type: ADME; design: dose 2 uM, timepoint 0 vs 12 hours; conditions: 2 µM
[14] = The drug is tested on Parabacteroides merdae strain: ATCC43184 for biotransformation. The drug concentrations were measured before and after a 12-h incubation by liquid-chromatography-coupled mass spectrometry (LC–MS); conditions: 2 µM
[15] = The drug is tested on Bacteroides xylanisolvens strain: DSM18836 for biotransformation. The drug concentrations were measured before and after a 12-h incubation by liquid-chromatography-coupled mass spectrometry (LC–MS); conditions: 2 µM
[16] = bacteroides thetaiotaomicron, 12 h, 2 µM
Description: The drug is tested on Bacteroides thetaiotaomicron strain: 7330 for biotransformation. The drug concentrations were measured before and after a 12-h incubation by liquid-chromatography-coupled mass spectrometry (LC–MS)

[17] = bacteroides thetaiotaomicron, 12 h, 2 µM; remark: listed apart in the source
Description: The drug is tested on Bacteroides thetaiotaomicron strain: 3731 for biotransformation. The drug concentrations were measured before and after a 12-h incubation by liquid-chromatography-coupled mass spectrometry (LC–MS)

[18] = The drug is tested on Bacteroides fragilis strain: HMW615 for biotransformation. The drug concentrations were measured before and after a 12-h incubation by liquid-chromatography-coupled mass spectrometry (LC–MS); conditions: 2 µM
[19] = The drug is tested on Bifidobacterium breve strain: DSM20213 for biotransformation. The drug concentrations were measured before and after a 12-h incubation by liquid-chromatography-coupled mass spectrometry (LC–MS); conditions: 2 µM

SMILES	Bacterial Biotransformation [1]	Bacterial Biotransformation [2]	Bacterial Biotransformation [3]	Bacterial Biotransformation [4]	Bacterial Biotransformation [5]	Bacterial Biotransformation [6]	Bacterial Biotransformation [7]	Bacterial Biotransformation [8]	Bacterial Biotransformation [9]	Bacterial Biotransformation [10]	Bacterial Biotransformation [11]	Bacterial Biotransformation [12]	Bacterial Biotransformation [13]	Bacterial Biotransformation [14]	Bacterial Biotransformation [15]	Bacterial Biotransformation [16]	Bacterial Biotransformation [17]	Bacterial Biotransformation [18]	Bacterial Biotransformation [19]
O=P(O)(O)O.c1ccc(CN(CC2=NCCN2)c2ccccc2)cc1 [ANTAZOLINE PHOSPHATE]	Compound NOT metabolized	Compound NOT metabolized	Compound NOT metabolized	Compound NOT metabolized	Compound NOT metabolized	Compound NOT metabolized	Compound NOT metabolized	Compound NOT metabolized	Compound NOT metabolized	Compound NOT metabolized	Compound NOT metabolized	Compound NOT metabolized	Compound NOT metabolized	Compound NOT metabolized	Compound NOT metabolized	–	–	–	–
O=C1C(CC[S+]([O-])c2ccccc2)C(=O)N(c2ccccc2)N1c1ccccc1 (configuration not stated) [SULFINPYRAZONE]	–	Compound NOT metabolized	Compound NOT metabolized	Compound NOT metabolized	Compound NOT metabolized	–	Compound NOT metabolized	–	Compound metabolized	–	Compound NOT metabolized	–	Compound NOT metabolized	Compound NOT metabolized	Compound metabolized	Compound NOT metabolized	Compound NOT metabolized	Compound metabolized	Compound NOT metabolized
COc1ccccc1OCC(O)CN1CCN(CC(=O)Nc2c(C)cccc2C)CC1 (configuration not stated) [RANOLAZINE]	Compound NOT metabolized	Compound NOT metabolized	Compound NOT metabolized	Compound NOT metabolized	Compound NOT metabolized	Compound NOT metabolized	Compound NOT metabolized	–	Compound NOT metabolized	Compound NOT metabolized	Compound NOT metabolized	Compound NOT metabolized	Compound NOT metabolized	Compound NOT metabolized	Compound NOT metabolized	Compound NOT metabolized	Compound NOT metabolized	Compound NOT metabolized	Compound NOT metabolized
CCc1cccc2c3c([nH]c12)C(CC)(CC(=O)O)OCC3 (configuration not stated) [ETODOLAC]	Compound NOT metabolized	Compound NOT metabolized	Compound NOT metabolized	Compound NOT metabolized	–	–	Compound NOT metabolized	Compound NOT metabolized	–	Compound NOT metabolized	Compound NOT metabolized	Compound metabolized	Compound NOT metabolized	Compound NOT metabolized	Compound metabolized	Compound metabolized	Compound NOT metabolized	Compound metabolized	–
CCCc1nn(C)c2c(=O)[nH]c(-c3cc(S(=O)(=O)N4CCN(C)CC4)ccc3OCC)nc12.O=C(O)CC(O)(CC(=O)O)C(=O)O [SILDENAFIL CITRATE]	–	Compound NOT metabolized	Compound metabolized	Compound NOT metabolized	Compound NOT metabolized	Compound NOT metabolized	Compound metabolized	–	–	Compound NOT metabolized	Compound metabolized	Compound NOT metabolized	–	Compound NOT metabolized	Compound metabolized	Compound NOT metabolized	Compound NOT metabolized	Compound NOT metabolized	Compound NOT metabolized
Cc1nc(-c2ccc(OCC(C)C)c(C#N)c2)sc1C(=O)O [FEBUXOSTAT]	–	Compound NOT metabolized	Compound NOT metabolized	Compound NOT metabolized	–	Compound NOT metabolized	–	Compound NOT metabolized	Compound NOT metabolized	Compound NOT metabolized	Compound NOT metabolized	Compound metabolized	Compound NOT metabolized	Compound NOT metabolized	Compound NOT metabolized	Compound NOT metabolized	Compound NOT metabolized	Compound NOT metabolized	–
OCCOCCN1CCN(C2=Nc3ccccc3Sc3ccccc32)CC1 [QUETIAPINE]	–	Compound NOT metabolized	Compound NOT metabolized	–	Compound NOT metabolized	Compound NOT metabolized	Compound NOT metabolized	–	Compound NOT metabolized	Compound NOT metabolized	Compound NOT metabolized	Compound NOT metabolized	Compound NOT metabolized	Compound NOT metabolized	–	Compound NOT metabolized	–	Compound NOT metabolized	Compound NOT metabolized
COc1cc(C(=O)NCc2ccc(OCCN(C)C)cc2)cc(OC)c1OC [TRIMETHOBENZAMIDE]	–	Compound NOT metabolized	Compound NOT metabolized	Compound NOT metabolized	Compound NOT metabolized	Compound NOT metabolized	Compound NOT metabolized	Compound NOT metabolized	Compound NOT metabolized	–	Compound NOT metabolized	Compound NOT metabolized	Compound NOT metabolized	Compound NOT metabolized	Compound NOT metabolized	Compound NOT metabolized	Compound NOT metabolized	Compound NOT metabolized	Compound NOT metabolized
CCCCC1=NC2(CCCC2)C(=O)N1Cc1ccc(-c2ccccc2-c2nnn[nH]2)cc1 [IRBESARTAN]	Compound metabolized	Compound metabolized	Compound metabolized	Compound NOT metabolized	–	Compound metabolized	Compound NOT metabolized	Compound NOT metabolized	Compound metabolized	Compound metabolized	Compound metabolized	Compound metabolized	Compound metabolized	Compound metabolized	Compound metabolized	Compound metabolized	Compound NOT metabolized	Compound metabolized	–
COC1=CC(=O)C[C@@H](C)[C@]12Oc1c(Cl)c(OC)cc(OC)c1C2=O [GRISEOFULVIN]	Compound NOT metabolized	Compound NOT metabolized	Compound NOT metabolized	Compound NOT metabolized	–	–	–	–	–	Compound NOT metabolized	Compound metabolized	Compound metabolized	Compound NOT metabolized	Compound metabolized	Compound metabolized	–	Compound NOT metabolized	Compound metabolized	–
